Reference: paper PMC6946680, “Modulation of brain cation-Cl^− cotransport via the SPAK kinase inhibitor ZT-1a” (Nature Communications, 2020)
Where “and” joins values, the source holds several entries; their conditions need not be identical. Equal entries are not always repeated.

What was measured:
[1] = test system: SPAK pSer373; test: Immunoblot of SPAK/OSR1 p-Ser373/Ser325 in HEK-293 cells; assay type: cell-based, human
Protocol: (§1) Band intensities were quantitated with ImageJ software. ***p < 0.001; **p < 0.01; *p < 0.05; ns, nonsignificant [by one-way ANOVA with post hoc testing (n = 6, error bars represent the mean ± SEM)].
(§2) Thirty-six hours post transfection, cells were stimulated with either control isotonic or hypotonic medium for a period of 30 min. […] Protein concentrations were determined using the Bradford method. Cells were treated with the indicated concentrations of the SPAK/OSR1 inhibitors.

[2] = test system: KCC3 pThr991; test: Immunoblot of KCC site 1 phosphorylation (KCC3 Thr991) in HEK-293 cells transfected with FLAG-KCC3; assay type: cell-based, human
[3] = test system: NKCC1 pThr203/207/212; test: Immunoblot of NKCC1 p-Thr203/Thr207/Thr212 in HEK-293 cells; assay type: cell-based, human
Protocol: as §1, §2

[4] = test system: KCC3 pThr1048; test: Immunoblot of KCC site 2 phosphorylation (KCC3 Thr1048) in HEK-293 cells transfected with FLAG-KCC3; assay type: cell-based, human
[5] = test system: mouse model of ischemic stroke (tMCAO); test: Infarct volume and hemispheric swelling (TTC) 24 h after tMCAO; assay type: in vivo; details: Fig 7b, individual mice
[6] = Hypotonic low Cl, compound concentration 1 (unit not given)
[7] = Hypotonic low Cl, compound concentration 3 (unit not given)
[8] = Hypotonic low Cl, compound concentration 10 (unit not given)
[9] = Isotonic control, compound concentration 1 (unit not given)
[10] = Isotonic control, compound concentration 3 (unit not given)
[11] = Isotonic control, compound concentration 10 (unit not given)

Cc1cc(C(C#N)c2ccc(Cl)cc2)c(Cl)cc1NC(=O)c1cc(Cl)cc(Cl)c1O (stereo not shown) [ZT-1f]
pSer373 / SPAK [1, 6]: 0.49 and 0.51 and 0.58 and 0.552 | pSer373 / SPAK [1, 7]: 0.255 and 0.215 and 0.1963 and 0.207 | pSer373 / SPAK [1, 8]: 0.059 and 0.041 and 0.05 and 0.046 | pSer373 / SPAK [1, 9]: 0.221 and 0.274 and 0.241 and 0.291 | pSer373 / SPAK [1, 10]: 0.101 and 0.09 and 0.083 and 0.121 | pSer373 / SPAK [1, 11]: 0.031 and 0.026 and 0.028 | Site-1 phospho / KCC [2, 6]: 0.591 and 0.61 and 0.578 and 0.662 | Site-1 phospho / KCC [2, 7]: 0.501 and 0.522 and 0.538 and 0.551 | Site-1 phospho / KCC [2, 8]: 0.304 and 0.287 and 0.249 and 0.4315 | Site-1 phospho / KCC [2, 9]: 0.52 and 0.572 and 0.465 and 0.481 | Site-1 phospho / KCC [2, 10]: 0.476 and 0.441 and 0.483 and 0.501 | Site-1 phospho / KCC [2, 11]: 0.412 and 0.386 and 0.366 and 0.392 | pThrNKCC1 / NKCC1 [3, 6]: 0.511 and 0.43 and 0.48 and 0.55 | pThrNKCC1 / NKCC1 [3, 7]: 0.144 and 0.139 and 0.1273 and 0.131 | pThrNKCC1 / NKCC1 [3, 8]: 0.029 and 0.031 and 0.039 and 0.026 | pThrNKCC1 / NKCC1 [3, 9]: 0.187 and 0.123 and 0.15 and 0.173 | pThrNKCC1 / NKCC1 [3, 11]: 0.009 and 0.011 and 0.016 and 0.012 | Site-2 phospho / KCC [4, 6]: 0.535 and 0.483 and 0.512 and 0.467 | Site-2 phospho / KCC [4, 7]: 0.341 and 0.264 and 0.311 and 0.293 | Site-2 phospho / KCC [4, 8]: 0.109 and 0.131 and 0.09 and 0.115 | Site-2 phospho / KCC [4, 9]: 0.486 and 0.369 and 0.411 and 0.451 | Site-2 phospho / KCC [4, 10]: 0.191 and 0.175 and 0.185 and 0.163 | Site-2 phospho / KCC [4, 11]: 0.073 and 0.097 and 0.081 and 0.092

Cc1cc(C(C#N)c2ccc(Cl)cc2)c(Cl)cc1NC(=O)c1cc(F)ccc1O (stereo not shown) [ZT-1g]
pSer373 / SPAK [1, 6]: 0.101 and 0.097 and 0.112 and 0.0903 | pSer373 / SPAK [1, 7]: 0.058 and 0.071 and 0.066 and 0.078 | pSer373 / SPAK [1, 8]: 0.044 and 0.027 and 0.035 and 0.041 | pSer373 / SPAK [1, 9]: 0.034 and 0.041 and 0.029 and 0.046 | pSer373 / SPAK [1, 11]: 0.017 and 0.015 and 0.013 and 0.016 | Site-1 phospho / KCC [2, 6]: 1.44 and 1.512 and 1.37 and 1.612 | Site-1 phospho / KCC [2, 7]: 1.67 and 1.55 and 1.71 and 1.58 | Site-1 phospho / KCC [2, 8]: 1.28 and 1.109 and 1.16 and 1.25 | Site-1 phospho / KCC [2, 9]: 1.31 and 1.461 and 1.597 and 1.37 | Site-1 phospho / KCC [2, 10]: 1.16 and 1.27 and 1.05 and 1.23 | Site-1 phospho / KCC [2, 11]: 0.79 and 0.93 and 0.85 and 0.712 | pThrNKCC1 / NKCC1 [3, 6]: 0.41 and 0.38 and 0.36 and 0.43 | pThrNKCC1 / NKCC1 [3, 7]: 0.21 and 0.19 and 0.176 and 0.196 | pThrNKCC1 / NKCC1 [3, 8]: 0.1 and 0.064 and 0.089 and 0.097 | pThrNKCC1 / NKCC1 [3, 9]: 0.306 and 0.28 and 0.251 and 0.293 | pThrNKCC1 / NKCC1 [3, 10]: 0.167 and 0.134 and 0.121 and 0.172 | pThrNKCC1 / NKCC1 [3, 11]: 0.035 and 0.039 and 0.045 and 0.032 | Site-2 phospho / KCC [4, 6]: 0.321 and 0.39 and 0.36 and 0.315 | Site-2 phospho / KCC [4, 7]: 0.263 and 0.275 and 0.22 and 0.253 | Site-2 phospho / KCC [4, 8]: 0.1 and 0.116 and 0.092 and 0.107 | Site-2 phospho / KCC [4, 9]: 0.389 and 0.326 and 0.357 and 0.301 | Site-2 phospho / KCC [4, 10]: 0.233 and 0.197 and 0.175 and 0.227 | Site-2 phospho / KCC [4, 11]: 0.104 and 0.076 and 0.11 and 0.095

Cc1cc(C(C#N)c2ccc(Cl)cc2)c(Cl)cc1NC(=O)c1cccc(F)c1O (stereo not shown) [ZT-1h]
pSer373 / SPAK [1, 6]: 0.297 and 0.248 and 0.275 and 0.253 | pSer373 / SPAK [1, 7]: 0.179 and 0.135 and 0.168 and 0.158 | pSer373 / SPAK [1, 8]: 0.066 and 0.034 and 0.051 and 0.049 | pSer373 / SPAK [1, 9]: 0.112 and 0.124 and 0.132 and 0.106 | pSer373 / SPAK [1, 10]: 0.08 and 0.07 and 0.064 and 0.084 | pSer373 / SPAK [1, 11]: 0.034 and 0.025 and 0.043 and 0.026 | Site-1 phospho / KCC [2, 6]: 0.488 and 0.427 and 0.359 and 0.502 | Site-1 phospho / KCC [2, 7]: 0.412 and 0.376 and 0.392 and 0.431 | Site-1 phospho / KCC [2, 8]: 0.165 and 0.187 and 0.122 and 0.203 | Site-1 phospho / KCC [2, 9]: 0.455 and 0.431 and 0.5108 and 0.482 | Site-1 phospho / KCC [2, 10]: 0.419 and 0.386 and 0.354 and 0.437 | Site-1 phospho / KCC [2, 11]: 0.215 and 0.201 and 0.251 and 0.276 | pThrNKCC1 / NKCC1 [3, 6]: 0.317 and 0.294 and 0.283 and 0.306 | pThrNKCC1 / NKCC1 [3, 7]: 0.131 and 0.156 and 0.1342 and 0.125 | pThrNKCC1 / NKCC1 [3, 9]: 0.112 and 0.132 and 0.122 and 0.109 | pThrNKCC1 / NKCC1 [3, 10]: 0.022 and 0.043 and 0.035 and 0.028 | pThrNKCC1 / NKCC1 [3, 11]: 0.008 and 0.006 and 0.004 and 0.005 | Site-2 phospho / KCC [4, 6]: 0.281 and 0.258 and 0.279 and 0.266 | Site-2 phospho / KCC [4, 7]: 0.143 and 0.176 and 0.159 and 0.132 | Site-2 phospho / KCC [4, 8]: 0.021 and 0.042 and 0.035 and 0.025 | Site-2 phospho / KCC [4, 9]: 0.271 and 0.243 and 0.219 and 0.263 | Site-2 phospho / KCC [4, 10]: 0.186 and 0.176 and 0.131 and 0.159 | Site-2 phospho / KCC [4, 11]: 0.052 and 0.041 and 0.03 and 0.048

Cc1cc(C(C#N)c2ccc(Cl)cc2)c(Cl)cc1NC(=O)c1cc(Cl)ccc1O (stereo not shown) [ZT]
Hemisphere swelling (%) ([5]; group ZT 2.5): 11.06% and 15.88% and 13.11% and 15.27% and 16.5% and 21.75% | Infarct volume (mm3) ([5]; group ZT 2.5): 29.36 mm3 and 90.65 mm3 and 33.9 mm3 and 61.9 mm3 and 46.64 mm3 and 99.8 mm3 | Hemisphere swelling (%) ([5]; group ZT 5.0): 16.2% and 16.76% and 19.99% and 9.25% and 8.47% and 7.57% and 9.24% and 4.63% and 10.39% and 8.48% and 13.8% and 7.91% | Infarct volume (mm3) ([5]; group ZT 5.0): 48.74 mm3 and 86.87 mm3 and 49.93 mm3 and 31.43 mm3 and 42.1 mm3 and 27.75 mm3 and 25.29 mm3 and 24.11 mm3 and 27.25 mm3 and 37.2 mm3 and 90 mm3 and 33.39 mm3
